This note sets out measurements from PubChem BioAssay AID1996.

Converted amounts (≈) assume the structure as drawn.

The conditions of the series: buffer; pH 7.4; 200.0 µM.
The term solubility (kinetic) denotes the concentration staying in solution when a stock, usually in DMSO, is diluted into the medium. On to `c1ccc(-c2nc3ccccn3c2-c2ccccc2)cc1`, for which the solubility (kinetic) came to 10.1 µg/mL (≈ 37.4 µM).

`O=Cc1ccc(OCCN2CCCC2=O)cc1` showed a kinetic solubility greater than 35 µg/mL. For `Nc1cc(N)nc(SCC(=O)NCc2ccco2)n1`, the solubility (kinetic) was greater than 41.9 µg/mL.

With `COC(=O)C(=C/C=C/c1cccnc1)C(=O)OC`, the kinetic solubility is greater than 37.1 µg/mL. For the compound `Cc1ccccc1CC(=O)N1CCCC1`, the kinetic solubility worked out at 29.7 µg/mL (≈ 146 µM). `N#Cc1cccc(C(=O)Nc2ccc(S(=O)(=O)Nc3nccs3)cc2)c1`: the kinetic solubility is greater than 57.7 µg/mL. The figure for `CN1CCN(S(=O)(=O)c2ccc(Cl)c3ccccc23)CC1` is 45.1 µg/mL (≈ 139 µM); for `Cc1ccccc1-c1nnc(SCCC(=O)N2CCOCC2)o1` it is greater than 50 µg/mL.

In turn, `CC(C)=C(NC(=O)c1ccccc1)C(=O)Nc1cccc(C)c1` yielded a solubility (kinetic) of 2.8 µg/mL (≈ 9.08 µM). For `COc1ccc(OC)c(-n2c(SCC(=O)NCC3CCCO3)nc3ccccc3c2=O)c1` (stereo not given), the kinetic solubility is greater than 68.3 µg/mL. As to `Cc1ccccc1-n1c(=O)n(Cc2ccco2)c(=O)c2[nH]cnc21`, the solubility (kinetic) was greater than 48.3 µg/mL. In turn, `Cc1ccc(NC(=O)COC(=O)C2=NNC(=O)CC2)c(Br)c1` registered a solubility (kinetic) greater than 55.2 µg/mL.

With `Cc1cccc(C(=O)NCCNC(=O)c2ccco2)c1`, the kinetic solubility is 34.5 µg/mL (≈ 127 µM). The compound `CC(=O)N1CCN(CC(=O)Nc2ccccc2C(=O)Nc2ccccc2)CC1` came in with a kinetic solubility greater than 57.1 µg/mL. On to `Cc1ncsc1C(=O)Nc1cccc(C(F)(F)F)c1`, for which the kinetic solubility turned out to be 40.7 µg/mL (≈ 142 µM). `COc1nc(N)nc(N)c1NS(=O)(=O)c1ccc(C)cc1` displayed a kinetic solubility greater than 46.4 µg/mL. Turning to `O=S(=O)(Nc1ccc(F)cc1)c1cccc2nsnc12`, the kinetic solubility was greater than 46.4 µg/mL. With `CC1=NCCN1S(=O)(=O)c1c(C(C)C)cc(C(C)C)cc1C(C)C` the figure was 16.8 µg/mL (≈ 47.9 µM); with `CC1=CC(C)(C)NC(=O)N1c1ccc(C)cc1`, greater than 34.5 µg/mL; with `COc1ccsc1C(=O)NCCN1CCOCC1`, 39.7 µg/mL (≈ 147 µM).

`CC1CCCC(NC(=O)CSc2nncs2)C1C` (stereo not given) displayed a kinetic solubility greater than 42.8 µg/mL. In the case of `O=C(Nc1ccccc1-c1ccccc1)c1ccccc1Br`, the solubility (kinetic) was 33.7 µg/mL (≈ 95.7 µM). For the compound `CC(=O)Oc1ccccc1C(=O)NC(C)CCc1ccccc1` (stereo not given), the solubility (kinetic) is greater than 46.7 µg/mL. The compound `O=C(C#Cc1ccccc1)NCc1ccccc1F` showed a solubility (kinetic) of 8.1 µg/mL (≈ 32 µM).

The compound `O=C(O)c1cc(S(=O)(=O)NCCCN2CCCC2=O)ccc1Cl` yielded a kinetic solubility greater than 54.1 µg/mL. Regarding `S=C(NCC1COc2ccccc2O1)Nc1ccccc1` (stereo not given), the solubility (kinetic) was determined as 6.5 µg/mL (≈ 21.6 µM). In turn, `Cc1ccnc(N2C(=O)c3ccc([N+](=O)[O-])cc3C2=O)c1` registered a solubility (kinetic) greater than 42.5 µg/mL. `O=[N+]([O-])c1ccc(N2CCOCC2)cc1N1CCCCC1` displayed a solubility (kinetic) greater than 43.7 µg/mL. With `Oc1ccc2ccccc2c1CN1CCCC1` the figure was 32 µg/mL (≈ 141 µM); with `COc1cc(C(=O)OCC(=O)N2CCCC2=O)cc(OC)c1C`, greater than 48.2 µg/mL; with `c1ccc(-c2nc3c4ccccc4ccn3c2CN2CCCCC2)cc1`, 8.1 µg/mL (≈ 23.7 µM). In turn, `O=C(c1cccs1)N1CCN(C23CC4CC(CC(C4)C2)C3)CC1` displayed a solubility (kinetic) greater than 49.6 µg/mL. Regarding `O=C(COC(=O)C1C2CC3OC(=O)C1C3C2)Nc1ccc(Cl)cc1` (stereo not given), the kinetic solubility amounted to 48.8 µg/mL (≈ 140 µM). `COc1ccc(Cn2c(C)nc3ccc([N+](=O)[O-])cc3c2=O)cc1` yielded a solubility (kinetic) of 3.8 µg/mL (≈ 11.7 µM). `CN(C(=O)Nc1cccc(C(F)(F)F)c1)C1CCCCC1` yielded a kinetic solubility of less than 0.3 µg/mL. In the case of `COc1ccc(C2CC3(O)CC(C#N)(C(=O)N3)C2(C#N)C#N)cc1` (stereo not given), the kinetic solubility was greater than 48.3 µg/mL. With `Cc1nc(-c2cc(-c3ccc(Cl)cc3)no2)cs1` the figure was less than 0.3 µg/mL.

On to `O=C(CCSCc1ccccc1Cl)NC1CCCCC1`, for which the solubility (kinetic) was determined as 8.1 µg/mL (≈ 26 µM). With `O=C(CN1CCN(Cc2ccccc2)CC1)N/N=C/c1ccco1`, the solubility (kinetic) is greater than 49 µg/mL. In turn, `N#Cc1ccccc1S(=O)(=O)Nc1ccc2c(c1)OCCO2` registered a kinetic solubility greater than 47.4 µg/mL. For `Cc1c(CCOC(=O)c2ccc(Cl)cc2Cl)sc[n+]1CC(=O)c1ccccc1.[Br-]`, the kinetic solubility is greater than 77.3 µg/mL. The figure for `Cc1ccsc1C(=O)OCC(=O)NC1CCCCC1C` (stereo not given) is 12 µg/mL (≈ 40.6 µM); for `CCC1=C([N+](=O)[O-])C(c2ccc3c(c2)OCO3)NC(=O)N1` (stereo not given) it is greater than 43.7 µg/mL. `C=Cn1ccnc1P(O)(=S)c1nc(C)c(CCOC(C)=O)s1` (stereo not given) came in with a solubility (kinetic) of 43.1 µg/mL (≈ 121 µM). On to `O=C(COC(=O)c1ccco1)NCc1ccc(Cl)cc1Cl`, for which the kinetic solubility turned out to be 14.1 µg/mL (≈ 43 µM). In turn, `CCC1CCCCN1C(=O)COc1ccc2c(c1)OCO2` (stereo not given) gave a kinetic solubility greater than 43.7 µg/mL.

For `O=C(CN1CCN(c2ccccn2)CC1)Nc1ccccc1F`, the solubility (kinetic) was 42.3 µg/mL (≈ 135 µM).

With `COc1ccc(NC(=O)COc2ccccc2Cc2ccccc2)cn1`, the solubility (kinetic) is 12.2 µg/mL (≈ 35 µM). `c1ccc(N2CCN(Cc3cn4ccccc4n3)CC2)cc1` displayed a kinetic solubility of 40.8 µg/mL (≈ 140 µM). With `CCc1[nH]c(C(=O)O)c(C)c1C(=O)OC` the figure was greater than 31.7 µg/mL; with `Cc1cc(C)c2nc(/N=C(\N)NC(=O)c3ccccc3)nc(C)c2c1`, 1.3 µg/mL (≈ 3.9 µM). With `OC(C#CCN1CCCC1)(c1ccccc1)c1cccnc1` (stereo not given) the figure was greater than 43.9 µg/mL; with `O=C(COC(=O)CNC(=O)c1ccc(Cl)c([N+](=O)[O-])c1)NC(=O)c1ccccc1`, 52.9 µg/mL (≈ 126 µM). The figure for `Cc1ccccc1Sc1ccc(N)cn1` is 31.4 µg/mL (≈ 145 µM). Take `CN(C)/C=N/S(=O)(=O)c1ccc(Cl)cc1`: the solubility (kinetic) came out at 35.8 µg/mL (≈ 145 µM). `CSc1ncccc1C(=O)OCC(=O)c1ccccc1` gave a solubility (kinetic) of 1 µg/mL (≈ 3.48 µM). The figure for `Cc1nc(-c2ccc([N+](=O)[O-])cc2)c(-c2ccccc2)o1` is 5.1 µg/mL (≈ 18.2 µM). The figure for `Cc1cc(/C=C2\SC(=S)NC2=O)c(C)[nH]1` is greater than 35.7 µg/mL. With `CCc1nc2ccccc2c(C(=O)OCC(=O)NC2CCCC2)c1C` the figure was 48.5 µg/mL (≈ 142 µM). Compound `Cc1ccc(NC(=O)CCC(=O)c2ccc(Cl)s2)nc1` yielded a kinetic solubility of 7.5 µg/mL (≈ 24.3 µM). In turn, `COc1ccc(/C=C/C(=O)O)cc1S(=O)(=O)N1CCCCC1` showed a kinetic solubility greater than 48.8 µg/mL.

`CC(C)NC(=O)NNC(=O)c1nn(-c2ccc(F)cc2)ccc1=O` registered a kinetic solubility greater than 50 µg/mL. As to `O=C(COC(=O)/C=C/c1cccc(F)c1)Nc1ccc(Cl)cn1`, the kinetic solubility was determined as 5 µg/mL (≈ 14.9 µM).

`Cc1sc2ncnc(NCCCN3CCCC3=O)c2c1C` showed a solubility (kinetic) greater than 45.7 µg/mL.

The compound `Cc1oc(-c2cc(F)cc(F)c2)nc1CN1CCSCC1` showed a kinetic solubility of 26.3 µg/mL (≈ 84.7 µM). `CC1=NOC(=O)/C1=C\c1ccccc1`: the solubility (kinetic) came out at 24.4 µg/mL (≈ 130 µM).

`Cc1ccc(Sc2ccc(S(=O)(=O)Nc3ccc(C(=O)O)cc3)cc2)cc1C`: the solubility (kinetic) was greater than 62 µg/mL. As for `O=C(NCc1ccc(Cl)cc1)N1CCN(Cc2ccccc2)CC1`, the kinetic solubility is greater than 51.6 µg/mL. In turn, `Cc1cc2c(SCC(=O)NCC3CCCO3)ncnc2s1` (stereo not given) had a solubility (kinetic) greater than 48.5 µg/mL.

`Cc1ccc(SCc2ccc(C(=O)Nc3nccs3)o2)cc1` showed a solubility (kinetic) of 2.2 µg/mL (≈ 6.66 µM). In the case of `C=CCOC(=O)C1=C(C)NC(=O)NC1c1ccc(OCC)cc1` (stereo not given), the kinetic solubility worked out at 7.4 µg/mL (≈ 23.4 µM). `CC1CCCC(C)N1CC(O)COC1CCC(C(C)(C)C)CC1.Cl` (stereo not given) displayed a kinetic solubility of 46.9 µg/mL. Turning to `CCNC(=S)NCc1ccc(OC)c(OC)c1`, the solubility (kinetic) was greater than 38.2 µg/mL.

`CCNc1nc(NC(C)C)nc(N(C#N)CC(=O)OC)n1` had a kinetic solubility greater than 44 µg/mL. In turn, `CN(C)c1nc(N(C)C)nc(N2CC(CCl)OC2=N)n1` (stereo not given) yielded a kinetic solubility greater than 45 µg/mL.
